# Target: DYRK1A (Homo sapiens, UniProt Q13627)
# Assay: Affinity testing of compounds with DYRK1A (KD)
# Format: binding
# Details: DYRK1A affinity key classes
row,SMILES,Kd [nM]
1,"Cc1cn2nc(-c3ccnc(N)c3)ccc2n1 [Compound 25, 4-(2-methylimidazo[1,2-b]pyridazin-6-yl)pyridin-2-amine]",0.5 to 100
2,"COc1cnc(-c2ccncc2)nc1 [Compound 70, 5-methoxy-2-(pyridin-4-yl)pyrimidine]",501 to 10000
3,"Cc1nc2ccc(-c3ccnc(C(F)F)c3)nc2n1-c1ccc2c(c1)OCO2 [Compound 61, 3-(benzo[d][1,3]dioxol-5-yl)-5-(2-(difluoromethyl)pyridin-4-yl)-2-methyl-3H-imidazo[4,5-b]pyridine]",501 to 10000
4,"Cc1nc2ccc(-c3cc[n+]([O-])cc3)nc2n1-c1ccc2c(c1)OCO2 [Compound 60, 4-(3-(benzo[d][1,3]dioxol-5-yl)-2-methyl-3H-imidazo[4,5-b]pyridin-5-yl)-1λ^4-pyridin-2-ylium-1-olate]",501 to 10000
5,"Nc1cc(-c2ccn3ncc(-c4ccc(CN5CCOCC5)cc4)c3n2)ccn1 [Compound 112, 4-(3-(4-(morpholinomethyl)phenyl)pyrazolo[1,5-a]pyrimidin-5-yl)pyridin-2-amine]",501 to 10000
6,"Fc1cc2ncn(-c3ccc4c(c3)OCO4)c2cc1-c1ccncc1 [Compound 2, 1-(benzo[d][1,3]dioxol-5-yl)-5-fluoro-6-(pyridin-4-yl)-1H-benzo[d]imidazole]",0.5 to 100
7,"c1cc(-c2ccc3ncn(-c4ccc5c(c4)OCO5)c3n2)ccn1 [Compound 4, 3-(benzo[d][1,3]dioxol-5-yl)-5-(pyridin-4-yl)-3H-imidazo[4,5-b]pyridine]",0.5 to 100
8,"c1cc(-c2ccc3ncc(-c4ccc(N5CCNCC5)nc4)n3n2)ccn1 [Compound 76, 3-(6-(piperazin-1-yl)pyridin-3-yl)-6-(pyridin-4-yl)imidazo[1,2-b]pyridazine]",0.5 to 100
9,"N#Cc1ccc(-n2cnc3ccc(-c4ccncc4)c(F)c32)nc1 [Compound 14, 6-(7-fluoro-6-(pyridin-4-yl)-1H-benzo[d]imidazol-1-yl)nicotinonitrile]",0.5 to 100
10,"Cc1cc(-c2ccc3ncc(-c4ccc(N5CCOCC5)nc4)n3n2)ccn1 [Compound 80, 4-(5-(6-(2-methylpyridin-4-yl)imidazo[1,2-b]pyridazin-3-yl)pyridin-2-yl)morpholine]",101 to 500
11,"Cc1nc2ccc(-c3ccnc(N)c3)nc2n1-c1cc(F)c(N2CCOCC2)c(F)c1 [Compound 172, 4-(3-(3,5-difluoro-4-morpholinophenyl)-2-methyl-3H-imidazo[4,5-b]pyridin-5-yl)pyridin-2-amine]",0.5 to 100
12,"Cc1nc2ccc(-c3cn[nH]c3)nc2n1-c1ccc2c(c1)OCO2 [Compound 30, 3-(benzo[d][1,3]dioxol-5-yl)-2-methyl-5-(1H-pyrazol-4-yl)-3H-imidazo[4,5-b]pyridine]",0.5 to 100
13,"Fc1cc(-c2cnc3ccc(-c4ccncc4)nn23)ccc1CN1CCOCC1 [Compound 78, 4-(2-fluoro-4-(6-(pyridin-4-yl)imidazo[1,2-b]pyridazin-3-yl)benzyl)morpholine]",101 to 500
14,"FC1CN(Cc2ccc(-c3cnc4ccc(-c5ccncc5)nn34)cc2)C1 [Compound 99, 3-(4-((3-fluoroazetidin-1-yl)methyl)phenyl)-6-(pyridin-4-yl)imidazo[1,2-b]pyridazine]",0.5 to 100
15,"Cc1nc2ccc(-c3ccnc(N)c3)nc2n1-c1ccc(N2CCOCC2)c(F)c1 [Compound 144, 4-(3-(3-fluoro-4-morpholinophenyl)-2-methyl-3H-imidazo[4,5-b]pyridin-5-yl)pyridin-2-amine]",0.5 to 100
16,"Fc1c(-c2ccncc2)ccc2nc(C3CC3)n(-c3ccc4c(c3)OCO4)c12 [Compound 21, 1-(benzo[d][1,3]dioxol-5-yl)-2-cyclopropyl-7-fluoro-6-(pyridin-4-yl)-1H-benzo[d]imidazole]",501 to 10000
17,"Cc1nc2ncc(-c3ccnc(N)c3)nc2n1-c1ccc(N2CCOCC2)cc1 [Compound 128, 4-(2-methyl-1-(4-morpholinophenyl)-1H-imidazo[4,5-b]pyrazin-6-yl)pyridin-2-amine]",501 to 10000
18,"CC(=O)N1CCN(c2cnc3ccc(-c4ccncc4)nn23)CC1 [Compound 85, 1-(4-(6-(pyridin-4-yl)imidazo[1,2-b]pyridazin-3-yl)piperazin-1-yl)ethan-1-one]",501 to 10000
19,"Cc1nc2ccc(-c3ccnc(N)c3)nc2n1-c1cnc(N2CCOCC2)c(Cl)c1 [Compound 166, 4-(3-(5-chloro-6-morpholinopyridin-3-yl)-2-methyl-3H-imidazo[4,5-b]pyridin-5-yl)pyridin-2-amine]",0.5 to 100
20,"c1n[nH]cc1-c1ccc2ncc(-c3ccc4c(c3)OCO4)n2n1 [Compound 27, 3-(benzo[d][1,3]dioxol-5-yl)-6-(1H-pyrazol-4-yl)imidazo[1,2-b]pyridazine]",0.5 to 100
21,"c1cc(-c2ccc3ncc(-c4ccc(N5CCN(C6COC6)CC5)nc4)n3n2)ccn1 [Compound 83, 3-(6-(4-(oxetan-3-yl)piperazin-1-yl)pyridin-3-yl)-6-(pyridin-4-yl)imidazo[1,2-b]pyridazine]",0.5 to 100
22,"CC(=O)N1CCc2cc(-n3c(C)nc4ccc(-c5ccnc(N)c5)nc43)ccc21 [Compound 154, 1-(5-(5-(2-aminopyridin-4-yl)-2-methyl-3H-imidazo[4,5-b]pyridin-3-yl)indolin-1-yl)ethan-1-one]",0.5 to 100
23,"CN1CCN(c2cnc3ccc(-c4ccncc4)nn23)CC1 [Compound 86, 3-(4-methylpiperazin-1-yl)-6-(pyridin-4-yl)imidazo[1,2-b]pyridazine]",501 to 10000
24,"Cc1nc2ccc(-c3ccnc(N)c3)nc2n1-c1ccc2[nH]ccc2c1 [Compound 150, 4-(3-(1H-indol-5-yl)-2-methyl-3H-imidazo[4,5-b]pyridin-5-yl)pyridin-2-amine]",0.5 to 100
25,"Cc1cc(-c2ccc3nc(C)n(-c4ccc5[nH]cnc5c4)c3n2)ccn1 [Compound 50, 3-(1H-benzo[d]imidazol-5-yl)-2-methyl-5-(2-methylpyridin-4-yl)-3H-imidazo[4,5-b]pyridine]",0.5 to 100

# Now from value to compound:
row,Kd [nM],SMILES
1,101 to 500,"Cc1nc2ccc(-c3ccncc3)nc2n1-c1ccc(CN2[C@@H]3COC[C@H]2CC(=O)C3)cc1 [Compound 123, (1R,5S)-9-(4-(2-methyl-5-(pyridin-4-yl)-3H-imidazo[4,5-b]pyridin-3-yl)benzyl)-3-oxa-9-azabicyclo[3.3.1]nonan-7-one]"
2,0.5 to 100,"Cc1nc2ccc(-c3ccnc(N)c3)nc2n1-c1ccc(N2CCN(C)CC2)c(F)c1 [Compound 151, 4-(3-(3-fluoro-4-(4-methylpiperazin-1-yl)phenyl)-2-methyl-3H-imidazo[4,5-b]pyridin-5-yl)pyridin-2-amine]"
3,0.5 to 100,"COC(=O)c1ccc(-n2cnc3ccc(-c4ccncc4)nc32)cc1 [Compound 9, methyl 4-(5-(pyridin-4-yl)-3H-imidazo[4,5-b]pyridin-3-yl)benzoate]"
4,0.5 to 100,"Cc1nc2ccc(-c3ccnc(N)c3)nc2n1-c1ccc(CN2CCCCC2)cc1 [Compound 159, 4-(2-methyl-3-(4-(piperidin-1-ylmethyl)phenyl)-3H-imidazo[4,5-b]pyridin-5-yl)pyridin-2-amine]"
5,0.5 to 100,"Cc1nc2ccc(-c3ccncc3)nc2n1-c1ccc(CN2CCOCC2)cc1 [Compound 28, 4-(4-(2-methyl-5-(pyridin-4-yl)-3H-imidazo[4,5-b]pyridin-3-yl)benzyl)morpholine]"
6,501 to 10000,"Cc1cc(-c2ccc3nc(C)n(-c4ccc(N5CCOCC5)cc4)c3n2)cc(C)n1 [Compound 53, 4-(4-(5-(2,6-dimethylpyridin-4-yl)-2-methyl-3H-imidazo[4,5-b]pyridin-3-yl)phenyl)morpholine]"
7,101 to 500,"Cc1nc2ccc(-c3ccncc3)nc2n1-c1ccc(N2CCOCC2)cc1 [Compound 134, 4-(4-(2-methyl-5-(pyridin-4-yl)-3H-imidazo[4,5-b]pyridin-3-yl)phenyl)morpholine]"
8,101 to 500,"CC(=O)N1CC[C@H](n2c(C)nc3ccc(-c4ccncc4)nc32)C1 [Compound 39, (S)-1-(3-(2-methyl-5-(pyridin-4-yl)-3H-imidazo[4,5-b]pyridin-3-yl)pyrrolidin-1-yl)ethan-1-one]"
9,0.5 to 100,"Cc1nc2ccc(-c3ccnc4[nH]ccc34)nc2n1-c1cccc(CN2CCOCC2)c1 [Compound 178, 4-(3-(2-methyl-5-(1H-pyrrolo[2,3-b]pyridin-4-yl)-3H-imidazo[4,5-b]pyridin-3-yl)benzyl)morpholine]"
10,0.5 to 100,"Cc1nc2ccc(-c3ccncc3)nc2n1-c1ccc(C#N)cn1 [Compound 42, 6-(2-methyl-5-(pyridin-4-yl)-3H-imidazo[4,5-b]pyridin-3-yl)nicotinonitrile]"
11,0.5 to 100,"CC(=O)N1CCN(Cc2ccc(-c3cnc4ccc(-c5ccncc5)nn34)cc2)CC1 [Compound 104, 1-(4-(4-(6-(pyridin-4-yl)imidazo[1,2-b]pyridazin-3-yl)benzyl)piperazin-1-yl)ethan-1-one]"
12,0.5 to 100,"Cc1nc2ccc(-c3ccncc3)nc2n1-c1ccc2[nH]ccc2c1 [Compound 136, 3-(1H-indol-5-yl)-2-methyl-5-(pyridin-4-yl)-3H-imidazo[4,5-b]pyridine]"
13,501 to 10000,"Cc1nc2ncc(-c3ccncc3)nc2n1-c1ccc(N2CCOCC2)cc1 [Compound 129, 4-(4-(2-methyl-6-(pyridin-4-yl)-1H-imidazo[4,5-b]pyrazin-1-yl)phenyl)morpholine]"
14,0.5 to 100,"Cc1c2cc(-n3c(C)nc4ccc(-c5ccncc5)nc43)ccc2nn1C [Compound 139, 3-(2,3-dimethyl-2H-indazol-5-yl)-2-methyl-5-(pyridin-4-yl)-3H-imidazo[4,5-b]pyridine]"
15,101 to 500,"COc1cc(-n2c(C)nc3ccc(-c4ccncc4)nc32)ccc1CN1CCOCC1 [Compound 142, 4-(2-methoxy-4-(2-methyl-5-(pyridin-4-yl)-3H-imidazo[4,5-b]pyridin-3-yl)benzyl)morpholine]"
16,0.5 to 100,"Cc1nc2ccc(-c3ccncc3)nc2n1-c1ccc(CN2CCN(C)CC2)cc1 [Compound 125, 2-methyl-3-(4-((4-methylpiperazin-1-yl)methyl)phenyl)-5-(pyridin-4-yl)-3H-imidazo[4,5-b]pyridine]"
17,501 to 10000,"Cc1nc2ccc(-c3ccnc(N)c3)nc2n1-c1ccc(CN2CCOCC2)nc1 [Compound 149, 4-(2-methyl-3-(6-(morpholinomethyl)pyridin-3-yl)-3H-imidazo[4,5-b]pyridin-5-yl)pyridin-2-amine]"

# — patent publication US12054483B2, “Small molecule inhibitors of DYRK/CLK and uses thereof” (Arizona Board of Regents on Behalf of the University of …, priority 2018, dated 2024)
